Results: patent publication US20240358693A1, “METHODS OF TREATING PAIN” (Aisa Pharma, Inc., priority 2023, published 2024)

Tested on: participants with Raynaud's Phenomenon secondary mostly to systemic sclerosis (SSc-RP)
Experiment: Frequency of weekly symptomatic RP attacks (patient diary), Phase 2a study Part A
Type: in vivo, human
Method: A randomized, placebo-controlled phase 2a study was performed and is in progress to assess the safety and efficacy of cilnidipine (10 mg and 20 mg) alone and in combination with 5 mg tadalafil, in participants with diagnosis of scleroderma and/or secondary Raynaud's disease.
The relevant metrics measured by this tool daily are: • Study medication • SSc-RP symptoms (Reporting an attack including duration of attack) • Severity of the attack considering all symptoms of the attack e.g., tingling, numbness, pain, color changes (VAS 0-10 cm scale) • Participant's location at the time of the attack (inside home/outside home) • Selecting symptoms experienced during the attack (tingling, numbness, pain, color changes, other) • Pain rating during the attack (11-point Likert scale) • The RCS based on how much difficulty participants had with Raynaud's today, how many attacks the participant had, and how long they lasted. Participants will also be asked to consider how much pain, numbness, or other symptoms the Raynaud's caused in fingers (including painful sores), and how much the Raynaud's alone affected the use of hands today (VAS 0-10 cm scale).
Percent change from baseline evaluation for frequency of weekly RP attacks were or will be used as the primary efficacy variable. The sponsor-developed participant-informed diary will be used to record data. Frequency of weekly RP attacks is defined as the total number of RP attacks divided by the number of days with available diary data within the last 7 days of each dosing period then multiplied by 7. Total number of RP attacks during the last 7 days of screening period divided by the number of days with available data then multiplied by 7 will be used as baseline for the analysis of all periods. The variable will be calculated as follows:
Percentage change={(weekly RP attacks for the last 7 days of each dosing period−Baseline weekly RP attacks)/Baseline weekly RP attacks}*100%.
Absolute change=weekly RP attacks for the last 7 days of each dosing period−Baseline weekly RP attacks
Percent change from baseline evaluation for frequency of weekly RP attacks was and will be the primary efficacy endpoint. Frequency of weekly RP attacks is defined as the total number of RP attacks divided by the number of days with available diary data within the last 7 days of each dosing period then multiplied by 7. Total number of RP attacks during the last 7 days of screening period divided by the number of days with available data then multiplied by 7 will be used as baseline for the analysis of all periods.
The following data was actually obtained in accordance with the protocol and plan delineated in Examples 1 and 2. The accompanying data involved 11 patients out of the planned 76 patient study. The study was done in patients with scleroderma (systemic sclerosis) who had relatively frequent Raynaud symptoms as they needed to average at least one attack per day during a screening period of up to two weeks. In this first phase of this double-blind placebo-controlled, prospective randomized study, patients were treated in parallel and after meeting study criteria were randomized to receive either placebo, cilnidipine 10 mg daily, cilnidipine 20 mg daily, tadalafil 5 mg daily, cilnidipine 10 mg plus 5 mg of tadalafil, or cilnidipine 20 mg plus 5 mg of tadalafil.

[1] = Pooled Cilnidipine 20 mg and Cilnidipine 20 mg + Tadalafil 5 mg, n 4, Excluding Outliers, ITT Part A
[2] = Pooled Cilnidipine (N = 3), ITT Part A
[3] = Pooled Cilnidipine, n 3, Excluding Outliers, ITT Part A
[4] = Pooled Cilnidipine, n 3, by Baseline RCS, 1st block (RCS <5.0), ITT Part A
[5] = all cilnidipine and cilnidipine plus tadalafil treated patients (n=7)
[6] = excluding outliers, by baseline RCS, first subgroup, cilnidipine 10 mg, tadalafil 5 mg daily
[7] = excluding outliers, by baseline RCS, first subgroup, cilnidipine 20 mg, tadalafil 5 mg daily
[8] = excluding outliers, by baseline RCS, first subgroup, pooled cilnidipine 10 mg and 20 mg, tadalafil 5 mg daily

**Q.** How did the “Weekly Symptomatic RP Attacks Change from Baseline, Median” value [1] turn out when `COCCOC(=O)C1=C(C)NC(C)=C(C(=O)OC/C=C/c2ccccc2)C1c1cccc([N+](=O)[O-])c1` (centres unmarked) [Cilnidipine, cilnidipine] was run?
**A.** −3.50

**Q.** And the “Weekly Symptomatic RP Attacks Percent Change from Baseline, Mean (SD)” value [1]?
**A.** −25.00 (14.410) %

**Q.** What about the “Weekly Symptomatic RP Attacks Percent Change from Baseline, Median” value [1] of the same compound?
**A.** −28.17%

**Q.** What about the “Weekly Symptomatic RP Attacks, Mean (SD)” value [1] of the same compound?
**A.** 9.75 (3.403)

**Q.** What about the “Weekly Symptomatic RP Attacks, Median” value [1] of the same compound?
**A.** 10.50

**Q.** What about the “Weekly Symptomatic RP Attacks Change from Baseline, Mean” value [2] of the same compound?
**A.** −5.33

**Q.** What about the “Weekly Symptomatic RP Attacks Change from Baseline, Median” value [2] of the same compound?
**A.** −7.00

**Q.** And the “Weekly Symptomatic RP Attacks Percent Change from Baseline, Mean” value [2]?
**A.** −33.60%

**Q.** What about the “Weekly Symptomatic RP Attacks Percent Change from Baseline, Median” value [2] of the same compound?
**A.** −33.33%

**Q.** And the “Weekly Symptomatic RP Attacks, Mean” value [2]?
**A.** 10.00

**Q.** And the “Weekly Symptomatic RP Attacks, Median” value [2]?
**A.** 11.00

**Q.** And the “Weekly Symptomatic RP Attacks Change from Baseline, Mean (SD)” value [3]?
**A.** −5.33 (2.887)

**Q.** And the “Weekly Symptomatic RP Attacks Change from Baseline, Median” value [3]?
**A.** −7.00

**Q.** What about the “Weekly Symptomatic RP Attacks Percent Change from Baseline, Mean (SD)” value [3] of the same compound?
**A.** −33.60 (5.164) %

**Q.** And the “Weekly Symptomatic RP Attacks Percent Change from Baseline, Median” value [3]?
**A.** −33.33%

**Q.** And the “Weekly Symptomatic RP Attacks, Mean (SD)” value [3]?
**A.** 10.00 (4.583)

**Q.** And the “Weekly Symptomatic RP Attacks, Median” value [3]?
**A.** 11.00

**Q.** And the “Weekly Symptomatic RP Attacks Change from Baseline, Mean (SD)” value [4]?
**A.** −5.33 (2.887)

**Q.** And the “Weekly Symptomatic RP Attacks Change from Baseline, Median” value [4]?
**A.** −7.00

**Q.** What about the “Weekly Symptomatic RP Attacks Percent Change from Baseline, Mean (SD)” value [4] of the same compound?
**A.** −33.60 (5.164) %

**Q.** And the “Weekly Symptomatic RP Attacks Percent Change from Baseline, Median” value [4]?
**A.** −33.33%

**Q.** And the “Weekly Symptomatic RP Attacks, Mean (SD)” value [4]?
**A.** 10.00 (4.583)

**Q.** And the “Weekly Symptomatic RP Attacks, Median” value [4]?
**A.** 11.00

**Q.** And the “patients in whom the average frequency of Raynaud's attacks decreased more than 25%” value [5]?
**A.** 6 of 7

**Q.** What about the “weekly frequency of Raynaud attacks, direction of change” value [5] of the same compound?
**A.** decrease

**Q.** What about the “reduction in the weekly frequency of attacks, range” value (baseline RCS <5.0, all cilnidipine and cilnidipine plus tadalafil treated patients (n=5)) of the same compound?
**A.** 28%-44%

**Q.** And the “Weekly Symptomatic RP Attacks Change from Baseline, Max” value [6]?
**A.** −7.0, −7.0

**Q.** And the “Weekly Symptomatic RP Attacks Change from Baseline, Mean (SD)” value [6]?
**A.** −7.00

**Q.** What about the “Weekly Symptomatic RP Attacks Change from Baseline, Median” value [6] of the same compound?
**A.** −7.00

**Q.** And the “Weekly Symptomatic RP Attacks Change from Baseline, Min” value [6]?
**A.** −7.0, −7.0

**Q.** And the “Weekly Symptomatic RP Attacks Change from Baseline, Q1” value [6]?
**A.** −7.00, −7.00

**Q.** And the “Weekly Symptomatic RP Attacks Change from Baseline, Q3” value [6]?
**A.** −7.00, −7.00

**Q.** What about the “Weekly Symptomatic RP Attacks Percent Change from Baseline, Max” value [6] of the same compound?
**A.** −33.3, −33.3%

**Q.** What about the “Weekly Symptomatic RP Attacks Percent Change from Baseline, Mean (SD)” value [6] of the same compound?
**A.** −33.33%

**Q.** What about the “Weekly Symptomatic RP Attacks Percent Change from Baseline, Median” value [6] of the same compound?
**A.** −33.33%

**Q.** And the “Weekly Symptomatic RP Attacks Percent Change from Baseline, Min” value [6]?
**A.** −33.3, −33.3%

**Q.** And the “Weekly Symptomatic RP Attacks Percent Change from Baseline, Q1” value [6]?
**A.** −33.33, −33.33%

**Q.** What about the “Weekly Symptomatic RP Attacks Percent Change from Baseline, Q3” value [6] of the same compound?
**A.** −33.33, −33.33%

**Q.** And the “Weekly Symptomatic RP Attacks, Max” value [6]?
**A.** 14.0, 14.0

**Q.** What about the “Weekly Symptomatic RP Attacks, Mean (SD)” value [6] of the same compound?
**A.** 14.00

**Q.** And the “Weekly Symptomatic RP Attacks, Median” value [6]?
**A.** 14.00

**Q.** What about the “Weekly Symptomatic RP Attacks, Min” value [6] of the same compound?
**A.** 14.0, 14.0

**Q.** And the “Weekly Symptomatic RP Attacks, Q1” value [6]?
**A.** 14.00, 14.00

**Q.** And the “Weekly Symptomatic RP Attacks, Q3” value [6]?
**A.** 14.00, 14.00

**Q.** And the “Weekly Symptomatic RP Attacks Change from Baseline, Max” value [7]?
**A.** −2.0

**Q.** And the “Weekly Symptomatic RP Attacks Change from Baseline, Mean (SD)” value [7]?
**A.** −4.50 (3.536)

**Q.** And the “Weekly Symptomatic RP Attacks Change from Baseline, Median” value [7]?
**A.** −4.50

**Q.** What about the “Weekly Symptomatic RP Attacks Change from Baseline, Min” value [7] of the same compound?
**A.** −7.0

**Q.** And the “Weekly Symptomatic RP Attacks Change from Baseline, Q1” value [7]?
**A.** −7.00

**Q.** And the “Weekly Symptomatic RP Attacks Change from Baseline, Q3” value [7]?
**A.** −2.00

**Q.** And the “Weekly Symptomatic RP Attacks Percent Change from Baseline, Max” value [7]?
**A.** −28.6%

**Q.** What about the “Weekly Symptomatic RP Attacks Percent Change from Baseline, Mean (SD)” value [7] of the same compound?
**A.** −33.73 (7.296) Percent

**Q.** And the “Weekly Symptomatic RP Attacks Percent Change from Baseline, Median” value [7]?
**A.** −33.73%

**Q.** And the “Weekly Symptomatic RP Attacks Percent Change from Baseline, Min” value [7]?
**A.** −38.9%

**Q.** What about the “Weekly Symptomatic RP Attacks Percent Change from Baseline, Q1” value [7] of the same compound?
**A.** −38.89%

**Q.** What about the “Weekly Symptomatic RP Attacks Percent Change from Baseline, Q3” value [7] of the same compound?
**A.** −28.57%

**Q.** What about the “Weekly Symptomatic RP Attacks, Max” value [7] of the same compound?
**A.** 11.0

**Q.** And the “Weekly Symptomatic RP Attacks, Mean (SD)” value [7]?
**A.** 8.00 (4.243)

**Q.** What about the “Weekly Symptomatic RP Attacks, Median” value [7] of the same compound?
**A.** 8.00

**Q.** What about the “Weekly Symptomatic RP Attacks, Min” value [7] of the same compound?
**A.** 5.0

**Q.** And the “Weekly Symptomatic RP Attacks, Q1” value [7]?
**A.** 5.00

**Q.** And the “Weekly Symptomatic RP Attacks, Q3” value [7]?
**A.** 11.00

**Q.** What about the “Weekly Symptomatic RP Attacks Change from Baseline, Max” value [8] of the same compound?
**A.** −2.0

**Q.** And the “Weekly Symptomatic RP Attacks Change from Baseline, Mean (SD)” value [8]?
**A.** −5.33 (2.887)

**Q.** And the “Weekly Symptomatic RP Attacks Change from Baseline, Median” value [8]?
**A.** −7.00

**Q.** What about the “Weekly Symptomatic RP Attacks Change from Baseline, Min” value [8] of the same compound?
**A.** −7.0

**Q.** What about the “Weekly Symptomatic RP Attacks Change from Baseline, Q1” value [8] of the same compound?
**A.** −7.00

**Q.** What about the “Weekly Symptomatic RP Attacks Change from Baseline, Q3” value [8] of the same compound?
**A.** −2.00

**Q.** What about the “Weekly Symptomatic RP Attacks Percent Change from Baseline, Max” value [8] of the same compound?
**A.** −28.6%

**Q.** And the “Weekly Symptomatic RP Attacks Percent Change from Baseline, Mean (SD)” value [8]?
**A.** −33.60 (5.164) Percent

**Q.** What about the “Weekly Symptomatic RP Attacks Percent Change from Baseline, Median” value [8] of the same compound?
**A.** −33.33%

**Q.** And the “Weekly Symptomatic RP Attacks Percent Change from Baseline, Min” value [8]?
**A.** −38.9%

**Q.** And the “Weekly Symptomatic RP Attacks Percent Change from Baseline, Q1” value [8]?
**A.** −38.89%

**Q.** What about the “Weekly Symptomatic RP Attacks Percent Change from Baseline, Q3” value [8] of the same compound?
**A.** −28.57%

**Q.** And the “Weekly Symptomatic RP Attacks, Max” value [8]?
**A.** 14.0

**Q.** What about the “Weekly Symptomatic RP Attacks, Mean (SD)” value [8] of the same compound?
**A.** 10.00 (4.583)

**Q.** And the “Weekly Symptomatic RP Attacks, Median” value [8]?
**A.** 11.00

**Q.** And the “Weekly Symptomatic RP Attacks, Min” value [8]?
**A.** 5.0

**Q.** What about the “Weekly Symptomatic RP Attacks, Q1” value [8] of the same compound?
**A.** 5.00

**Q.** What about the “Weekly Symptomatic RP Attacks, Q3” value [8] of the same compound?
**A.** 14.00
